Measured values: ChEMBL document CHEMBL3044552, “Synthesis and biological evaluation of 1-(3-chloro-2-oxo-4-phenylazetidin-1-yl)-3-(2-oxo-2-(10H-phenothiazin-10-yl)ethyl)urea derivatives” (Med Chem Res, 2013)
In brackets after ≈: the same amount, converted by molar mass. Activity calls are given as the source filed them. No cut-off for these calls is given here.

Assays:
Monascus purpureus [1] = test: Antifungal activity against Monascus purpureus after 24 hr by disk diffusion method; assay type: functional
Micrococcus luteus [2] = test: Antibacterial activity against Micrococcus luteus after 18 hr by serial dilution method; assay type: functional
Trichophyton rubrum [3] = test: Antifungal activity against Trichophyton rubrum after 18 hr by serial dilution method; assay type: functional
Monascus purpureus [4] = test: Antifungal activity against Monascus purpureus after 18 hr by serial dilution method; assay type: functional
Vibrio cholerae [5] = test: Antibacterial activity against Vibrio cholerae after 24 hr by disk diffusion method; assay type: functional
[6] = test system: Staphylococcus epidermidis; test: Antibacterial activity against Staphylococcus albus after 24 hr by disk diffusion method; assay type: functional
Pseudomonas aeruginosa [7] = test: Antibacterial activity against Pseudomonas aeruginosa after 24 hr by disc diffusion method; assay type: functional
Staphylococcus aureus [8] = test: Antibacterial activity against Staphylococcus aureus after 24 hr by disk diffusion method; assay type: functional
Bacillus subtilis [9] = test: Antibacterial activity against Bacillus subtilis after 18 hr by serial dilution method; assay type: functional
Salmonella paratyphi [10] = test: Antibacterial activity against Salmonella enterica subsp. enterica serovar Paratyphi A after 24 hr by disk diffusion method; assay type: functional
Candida albicans [11] = test: Antifungal activity against Candida albicans after 24 hr by disk diffusion method; assay type: functional
Vibrio cholerae [12] = test: Antibacterial activity against Vibrio cholerae after 18 hr by serial dilution method; assay type: functional
Staphylococcus aureus [13] = test: Antibacterial activity against Staphylococcus aureus after 18 hr by serial dilution method; assay type: functional
Aspergillus niger [14] = test: Antifungal activity against Aspergillus niger after 24 hr by disc diffusion method; assay type: functional
Pseudomonas aeruginosa [15] = test: Antibacterial activity against Pseudomonas aeruginosa after 18 hr by serial dilution method; assay type: functional
Candida albicans [16] = test: Antifungal activity against Candida albicans after 18 hr by serial dilution method; assay type: functional
Aspergillus niger [17] = test: Antifungal activity against Aspergillus niger after 18 hr by serial dilution method; assay type: functional
Salmonella paratyphi [18] = test: Antibacterial activity against Salmonella enterica subsp. enterica serovar Paratyphi A after 18 hr by serial dilution method; assay type: functional
Escherichia coli [19] = test: Antibacterial activity against Escherichia coli after 24 hr by disc diffusion method; assay type: functional
Bacillus subtilis [20] = test: Antibacterial activity against Bacillus subtilis after 24 hr by disk diffusion method; assay type: functional
Micrococcus luteus [21] = test: Antibacterial activity against Micrococcus luteus after 24 hr by disk diffusion method; assay type: functional
Trichophyton rubrum [22] = test: Antifungal activity against Trichophyton rubrum after 24 hr by disk diffusion method; assay type: functional
Escherichia coli [23] = test: Antibacterial activity against Escherichia coli after 18 hr by serial dilution method; assay type: functional
[24] = test system: Staphylococcus epidermidis; test: Antibacterial activity against Staphylococcus albus after 18 hr by serial dilution method; assay type: functional
[25] = test system: Radical scavenging activity; test: Antioxidant activity assessed as DPPH radical scavenging activity after 30 min by spectrophotometric analysis; assay type: functional
[26] = Antioxidant activity assessed as reduction of ferric ion after 30 min by spectrophotometric analysis; assay type: functional
[27] = test system: Mycobacterium tuberculosis; test: Growth inhibition of Mycobacterium tuberculosis H37Rv at 100 ug/ml after 7 days by resazurin microplate assay; assay type: functional, organism-based
[28] = test system: Mycobacterium tuberculosis; test: Growth inhibition of Mycobacterium tuberculosis H37Rv at 10 ug/ml after 7 days by resazurin microplate assay; assay type: functional, organism-based
[29] = test system: Mycobacterium tuberculosis; test: Growth inhibition of Mycobacterium tuberculosis H37Rv at 1 ug/ml after 7 days by resazurin microplate assay; assay type: functional, organism-based

Compound | diameter of the inhibition zone (DIZ) (Monascus purpureus [1]) [mm] | MIC (Micrococcus luteus [2]) [µg/mL] | MIC (Trichophyton rubrum [3]) [µg/mL] | MIC (Monascus purpureus [4]) [µg/mL] | diameter of the inhibition zone (DIZ) (Vibrio cholerae [5]) [mm] | diameter of the inhibition zone (DIZ) [6] [mm] | diameter of the inhibition zone (DIZ) (Pseudomonas aeruginosa [7]) [mm] | diameter of the inhibition zone (DIZ) (Staphylococcus aureus [8]) [mm] | MIC (Bacillus subtilis [9]) [µg/mL] | diameter of the inhibition zone (DIZ) (Salmonella paratyphi [10]) [mm] | MIC (Vibrio cholerae [12]) [µg/mL] | MIC (Staphylococcus aureus [13]) [µg/mL] | diameter of the inhibition zone (DIZ) (Aspergillus niger [14]) [mm] | MIC (Pseudomonas aeruginosa [15]) [µg/mL] | MIC (Candida albicans [16]) [µg/mL] | MIC (Aspergillus niger [17]) [µg/mL] | MIC (Salmonella paratyphi [18]) [µg/mL] | diameter of the inhibition zone (DIZ) (Bacillus subtilis [20]) [mm] | diameter of the inhibition zone (DIZ) (Micrococcus luteus [21]) [mm] | diameter of the inhibition zone (DIZ) (Trichophyton rubrum [22]) [mm] | other results
COc1cc(C2C(Cl)C(=O)N2NC(=O)NCC(=O)N2c3ccccc3Sc3ccccc32)ccc1O (configuration not stated) | 7 | 250 (≈ 476 µM) | 250 (≈ 476 µM) | 250 (≈ 476 µM) | 10 | 5 | 10 | 7 | 250 (≈ 476 µM) | 10 | 125 (≈ 238 µM) | 250 (≈ 476 µM) | 5 | 125 (≈ 238 µM) | 125 (≈ 238 µM) | 250 (≈ 476 µM) | 125 (≈ 238 µM) | 6 | 8 | 4 | diameter of the inhibition zone (DIZ) (Candida albicans [11]): 10 mm; diameter of the inhibition zone (DIZ) (Escherichia coli [19]): 10 mm; MIC (Escherichia coli [23]): 125 µg/mL (≈ 238 µM); MIC [24]: 250 µg/mL (≈ 476 µM)
O=C(NCC(=O)N1c2ccccc2Sc2ccccc21)NN1C(=O)C(Cl)C1c1cccc(F)c1 (configuration not stated) | 10 | 250 (≈ 503 µM) | 125 (≈ 252 µM) | 125 (≈ 252 µM) | 9 | 11 | 11 | 7 | 62.5 (≈ 126 µM) | 10 | 125 (≈ 252 µM) | 250 (≈ 503 µM) | 7 | 125 (≈ 252 µM) | 125 (≈ 252 µM) | 250 (≈ 503 µM) | 125 (≈ 252 µM) | 11 | 7 | 7 | diameter of the inhibition zone (DIZ) (Candida albicans [11]): 11 mm; EC50 [25]: 47 µg/mL (≈ 94.6 µM); Activity [26]: Active; diameter of the inhibition zone (DIZ) (Escherichia coli [19]): 6 mm; MIC (Escherichia coli [23]): 250 µg/mL (≈ 503 µM); MIC [24]: 125 µg/mL (≈ 252 µM)
Clc1ccccc1C(c1ccccc1)(c1ccccc1)n1ccnc1 [CLOTRIMAZOLE] | 20 | – | 62.5 (≈ 181 µM) | 62.5 (≈ 181 µM) | – | – | – | – | – | – | – | – | 4 | – | 62.5 (≈ 181 µM) | 125 (≈ 362 µM) | – | – | – | 22 | –
COc1ccc(C2C(Cl)C(=O)N2NC(=O)NCC(=O)N2c3ccccc3Sc3ccccc32)cc1 (configuration not stated) | 6 | 250 (≈ 491 µM) | 250 (≈ 491 µM) | 250 (≈ 491 µM) | 9 | 10 | 7 | 5 | 250 (≈ 491 µM) | 8 | 125 (≈ 246 µM) | 250 (≈ 491 µM) | 10 | 125 (≈ 246 µM) | 250 (≈ 491 µM) | 125 (≈ 246 µM) | 125 (≈ 246 µM) | 7 | 7 | 6 | diameter of the inhibition zone (DIZ) (Candida albicans [11]): 7 mm; diameter of the inhibition zone (DIZ) (Escherichia coli [19]): 8 mm; MIC (Escherichia coli [23]): 125 µg/mL (≈ 246 µM); MIC [24]: 62.5 µg/mL (≈ 123 µM)
FERROUS SULFATE | – | – | – | – | – | – | – | – | – | – | – | – | – | – | – | – | – | – | – | – | Activity [26]: Active
CN(C)c1ccc(C2C(Cl)C(=O)N2NC(=O)NCC(=O)N2c3ccccc3Sc3ccccc32)cc1 (configuration not stated) | 7 | 250 (≈ 479 µM) | 250 (≈ 479 µM) | 250 (≈ 479 µM) | 8 | 8 | 12 | 8 | 125 (≈ 239 µM) | 6 | 125 (≈ 239 µM) | 125 (≈ 239 µM) | 8 | 62.5 (≈ 120 µM) | 250 (≈ 479 µM) | 125 (≈ 239 µM) | 250 (≈ 479 µM) | 8 | 5 | 7 | growth inhibition (GI) [27]: Active; diameter of the inhibition zone (DIZ) (Candida albicans [11]): 7 mm; EC50 [25]: 55 µg/mL (≈ 105 µM); growth inhibition (GI) [28]: inactive; Activity [26]: Active; diameter of the inhibition zone (DIZ) (Escherichia coli [19]): 7 mm; growth inhibition (GI) [29]: inactive; MIC (Escherichia coli [23]): 250 µg/mL (≈ 479 µM); MIC [24]: 125 µg/mL (≈ 239 µM)
CO[C@H]1/C=C/O[C@@]2(C)Oc3c(C)c(O)c4c(O)c(c(/C=N/N5CCN(C)CC5)c(O)c4c3C2=O)NC(=O)/C(C)=C\C=C\[C@H](C)[C@H](O)[C@@H](C)[C@@H](O)[C@@H](C)[C@H](OC(C)=O)[C@@H]1C | – | – | – | – | – | – | – | – | – | – | – | – | – | – | – | – | – | – | – | – | growth inhibition (GI) [28]: Active; growth inhibition (GI) [29]: Active
O=C1O[C@H]([C@@H](O)CO)C(O)=C1O [ASCORBIC ACID] | – | – | – | – | – | – | – | – | – | – | – | – | – | – | – | – | – | – | – | – | EC50 [25]: 40 µg/mL (≈ 227 µM)
O=C(O)c1cn(C2CC2)c2cc(N3CCNCC3)c(F)cc2c1=O [CIPROFLOXACIN] | – | 125 (≈ 377 µM) | – | – | 15 | 23 | 22 | 20 | 62.5 (≈ 189 µM) | 18 | 125 (≈ 377 µM) | 62.5 (≈ 189 µM) | – | 62.5 (≈ 189 µM) | – | – | 125 (≈ 377 µM) | 25 | 16 | – | MIC (Escherichia coli [23]): 62.5 µg/mL (≈ 189 µM); MIC [24]: 62.5 µg/mL (≈ 189 µM)
O=C(NCC(=O)N1c2ccccc2Sc2ccccc21)NN1C(=O)C(Cl)C1c1cccc(Cl)c1 (configuration not stated) | 7 | 250 (≈ 487 µM) | 250 (≈ 487 µM) | 250 (≈ 487 µM) | 8 | 11 | 10 | 7 | 125 (≈ 243 µM) | 10 | 250 (≈ 487 µM) | 250 (≈ 487 µM) | 7 | 125 (≈ 243 µM) | 62.5 (≈ 122 µM) | 250 (≈ 487 µM) | 125 (≈ 243 µM) | 11 | 5 | 6 | growth inhibition (GI) [27]: Active; diameter of the inhibition zone (DIZ) (Candida albicans [11]): 12 mm; growth inhibition (GI) [28]: Active; diameter of the inhibition zone (DIZ) (Escherichia coli [19]): 5 mm; growth inhibition (GI) [29]: inactive; MIC (Escherichia coli [23]): 500 µg/mL (≈ 974 µM); MIC [24]: 125 µg/mL (≈ 243 µM)
O=C(NCC(=O)N1c2ccccc2Sc2ccccc21)NN1C(=O)C(Cl)C1c1ccccc1Cl (configuration not stated) | 10 | 250 (≈ 487 µM) | 125 (≈ 243 µM) | 125 (≈ 243 µM) | 6 | 5 | 7 | 4 | 250 (≈ 487 µM) | 12 | 250 (≈ 487 µM) | 500 (≈ 974 µM) | 8 | 250 (≈ 487 µM) | 62.5 (≈ 122 µM) | 125 (≈ 243 µM) | 125 (≈ 243 µM) | 7 | 7 | 10 | diameter of the inhibition zone (DIZ) (Candida albicans [11]): 12 mm; EC50 [25]: 57 µg/mL (≈ 111 µM); Activity [26]: Active; diameter of the inhibition zone (DIZ) (Escherichia coli [19]): 8 mm; MIC (Escherichia coli [23]): 250 µg/mL (≈ 487 µM); MIC [24]: 250 µg/mL (≈ 487 µM)
